Data from patent publication US10131652B2, “Pyrimidinyloxy benzene derivatives as herbicides” (E. I. DU PONT DE NEMOURS AND COMPANY, priority 2014, dated 2018).
Like-named read-outs stand apart in the source and are kept apart here.

Key:
Type in all cases: in vivo
[1] = tested on: Italian ryegrass (Lolium multiflorum); test: Test E pre-/postemergence plant response; conditions: scale 0 to 100, read-out: Plant response rating, Ryegrass, Italian; for pest or weed control at 16 g/ha: 16 g ai/ha; for pest or weed control at 31 g/ha: 31 g ai/ha; for pest or weed control at 62 g/ha: 62 g ai/ha; for pest or weed control at 125 g/ha: 125 g ai/ha
Excerpt: (§1) Seeds of plant species selected from bluegrass (annual bluegrass, Poa annua), blackgrass (Alopecurus myosuroides), canarygrass (Phalaris minor), chickweed (common chickweed, Stellaria media), galium (catchweed bedstraw, Galium aparine), downy bromegrass (Bromus tectorum), field poppy (Papaver rhoeas), field violet (Viola arvensis), green foxtail (Setaria viridis), deadnettle (henbit deadnettle, Lamium amplexicaule), Italian ryegrass (Lolium multiflorum), kochia (Kochia scoparia), lambsquarters (Chenopodium album), oilseed rape (Brassica napus), pigweed (Amaranthus retroflexus), Russian thistle (Salsola iberica), chamomile (scentless chamomile, Matricaria inodora), speedwell (bird's-eye speedwell, Veronica persica), spring barley (Hordeum vulgare), spring wheat (Triticum aestivum), wild buckwheat (Polygonum convolvulus), wild mustard (Sinapis arvensis), wild oat (Avena fatua), wild radish (Raphanus raphanistrum), windgrass (Apera spica-venti), winter barley (Hordeum vulgare), and winter wheat (Triticum aestivum) were planted into a silt loam soil and treated preemergence with test chemicals formulated in a non-phytotoxic solvent mixture which included a surfactant. At the same time, these species were planted in pots containing Redi-Earth® planting medium (Scotts Company, 14111 Scottslawn Road, Marysville, Ohio 43041) comprising spaghnum peat moss, vermiculite, wetting agent and starter nutrients and treated with postemergence applications of the test chemicals formulated in the same manner. Plants ranged in height from 2 to 18 cm (1- to 4-leaf stage).
(§2) Treated plants and controls were maintained in a controlled growth environment for 7 to 21 days after which time all species were compared to controls and visually evaluated. Plant response ratings, summarized in Table E, are based on a scale of 0 to 100 where 0 is no effect and 100 is complete control. A dash (-) response means no test result.

[2] = tested on: green foxtail (Setaria viridis); test: Test E pre-/postemergence plant response; conditions: scale 0 to 100, read-out: Plant response rating, Foxtail, Green; for pest or weed control at 16 g/ha: 16 g ai/ha; for pest or weed control at 31 g/ha: 31 g ai/ha; for pest or weed control at 62 g/ha: 62 g ai/ha; for pest or weed control at 125 g/ha: 125 g ai/ha
Excerpt: as §1, §2

[3] = tested on: lambsquarters (Chenopodium album); test: Test F pre-/postemergence plant response; conditions: Chenopodium album, pre-emergence, Preemergence, scale 0 to 100, read-out: Plant response rating, Lambsquarters
How it was run: (§3)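 Two application timings were run side by side: soil surface treatment of freshly planted seed in silt loam, and foliar treatment of seedlings 2 to 18 cm high. Plants stayed in the greenhouse 14 to 21 days before visual 0–100 injury scoring against controls.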

[4] = tested on: hairy beggarticks (Bidens pilosa); test: Test F pre-/postemergence plant response; conditions: Bidens pilosa, pre-emergence, scale 0 to 100, read-out: Plant response rating, Beggarticks
How it was run: as §3

[5] = tested on: kochia (Kochia scoparia); test: Test F pre-/postemergence plant response; conditions: Bassia scoparia, pre-emergence, Preemergence, scale 0 to 100, read-out: Plant response rating, Kochia
How it was run: as §3

[6] = tested on: Italian ryegrass (Lolium multiflorum); test: Test F pre-/postemergence plant response; conditions: Lolium multiflorum, pre-emergence, Preemergence, scale 0 to 100, read-out: Plant response rating, Ryegrass, Italian
How it was run: as §3

[7] = tested on: yellow nutsedge (Cyperus esculentus); test: Test F pre-/postemergence plant response; conditions: Cyperus, pre-emergence, scale 0 to 100, read-out: Plant response rating, Nutsedge, Yellow
How it was run: as §3

[8] = tested on: nightshade (eastern black nightshade, Solanum ptycanthum); test: Test F pre-/postemergence plant response; conditions: Solanum, pre-emergence, scale 0 to 100, read-out: Plant response rating, Nightshade
How it was run: as §3

[9] = tested on: velvetleaf (Abutilon theophrasti); test: Test F pre-/postemergence plant response; conditions: Abutilon theophrasti, pre-emergence, scale 0 to 100, read-out: Plant response rating, Velvetleaf
How it was run: as §3

[10] = tested on: goosegrass (Eleusine indica); test: Test F pre-/postemergence plant response; conditions: Eleusine indica, pre-emergence, scale 0 to 100, read-out: Plant response rating, Goosegrass
How it was run: as §3

[11] = tested on: field bindweed (Convolvulus arvensis); test: Test F pre-/postemergence plant response; conditions: Convolvulus arvensis, pre-emergence, scale 0 to 100, read-out: Plant response rating, Field Bindweed
How it was run: as §3

Fc1cccc(Oc2ncc(Cl)cn2)c1-c1cc(C(F)(F)F)on1 [Compound 168, 5-chloro-2-[2-[5-(trifluoromethyl)-3-isoxazolyl]-3-fluorophenoxy]pyrimidine] showed a pest or weed control at 16 g/ha ([1]; post-emergence, Postemergence) of 5%, a pest or weed control at 31 g/ha ([1]; post-emergence, Postemergence) of 10% and a pest or weed control at 62 g/ha ([1]; post-emergence, Postemergence) of 20%. For the same compound, the pest or weed control at 125 g/ha ([1]; post-emergence, Postemergence) was 25%, the pest or weed control at 16 g/ha ([1]; pre-emergence, Preemergence) was 0% and the pest or weed control at 31 g/ha ([1]; pre-emergence, Preemergence) was 0%. The pest or weed control at 62 g/ha ([1]; pre-emergence, Preemergence) was 30%, the pest or weed control at 125 g/ha ([1]; pre-emergence, Preemergence) was 75% and the pest or weed control at 16 g/ha ([2]; post-emergence, Postemergence) was 20%. For the same compound, the pest or weed control at 31 g/ha ([2]; post-emergence, Postemergence) was 60%, the pest or weed control at 62 g/ha ([2]; post-emergence, Postemergence) was 60% and the pest or weed control at 125 g/ha ([2]; post-emergence, Postemergence) was 75%. For the same compound, the pest or weed control at 16 g/ha ([2]; pre-emergence, Preemergence) was 10%, the pest or weed control at 31 g/ha ([2]; pre-emergence, Preemergence) was 100% and the pest or weed control at 62 g/ha ([2]; pre-emergence, Preemergence) was 100%. It also gave a pest or weed control at 125 g/ha ([2]; pre-emergence, Preemergence) of 100%, a pest or weed control at 16 g/ha ([3]; 16 g ai/ha) of 100% and a pest or weed control at 31 g/ha ([3]; 31 g ai/ha) of 100%. It also gave a pest or weed control at 125 g/ha ([3]; 125 g ai/ha) of 100%, a pest or weed control at 62 g/ha [3] of 100% and a pest or weed control at 16 g/ha ([4]; 16 g ai/ha Preemergence) of 0%. For the same compound, the pest or weed control at 31 g/ha ([4]; 31 g ai/ha Preemergence) was 0%, the pest or weed control at 62 g/ha ([4]; 62 g ai/ha Preemergence) was 0% and the pest or weed control at 125 g/ha ([4]; 125 g ai/ha Preemergence) was 0%. For the same compound, the pest or weed control at 16 g/ha ([5]; 16 g ai/ha) was 95%, the pest or weed control at 31 g/ha ([5]; 31 g ai/ha) was 100% and the pest or weed control at 125 g/ha ([5]; 125 g ai/ha) was 100%. It also gave a pest or weed control at 62 g/ha [5] of 100%, a pest or weed control at 16 g/ha ([6]; 16 g ai/ha) of 15% and a pest or weed control at 31 g/ha ([6]; 31 g ai/ha) of 30%. The pest or weed control at 125 g/ha ([6]; 125 g ai/ha) was 70%, the pest or weed control at 62 g/ha [6] was 65% and the pest or weed control at 16 g/ha ([7]; 16 g ai/ha Preemergence) was 0%. For the same compound, the pest or weed control at 31 g/ha ([7]; 31 g ai/ha Preemergence) was 0%, the pest or weed control at 125 g/ha ([7]; 125 g ai/ha Preemergence) was 20% and the pest or weed control at 62 g/ha ([7]; Preemergence) was 0%. It also gave a pest or weed control at 16 g/ha ([8]; 16 g ai/ha Preemergence) of 5%, a pest or weed control at 31 g/ha ([8]; 31 g ai/ha Preemergence) of 98% and a pest or weed control at 125 g/ha ([8]; 125 g ai/ha Preemergence) of 98%. It also gave a pest or weed control at 62 g/ha ([8]; Preemergence) of 98%, a pest or weed control at 16 g/ha ([9]; 16 g ai/ha Preemergence) of 35% and a pest or weed control at 31 g/ha ([9]; 31 g ai/ha Preemergence) of 75%. The pest or weed control at 125 g/ha ([9]; 125 g ai/ha Preemergence) was 100%, the pest or weed control at 62 g/ha ([9]; Preemergence) was 100% and the pest or weed control at 16 g/ha ([10]; 16 g ai/ha Preemergence) was 80%. For the same compound, the pest or weed control at 31 g/ha ([10]; 31 g ai/ha Preemergence) was 95%, the pest or weed control at 125 g/ha ([10]; 125 g ai/ha Preemergence) was 100% and the pest or weed control at 62 g/ha ([10]; Preemergence) was 98%. It also gave a pest or weed control at 16 g/ha ([11]; 16 g ai/ha Preemergence) of 40%, a pest or weed control at 31 g/ha ([11]; 31 g ai/ha Preemergence) of 60% and a pest or weed control at 62 g/ha ([11]; 62 g ai/ha Preemergence) of 50%. It also gave a pest or weed control at 125 g/ha ([11]; 125 g ai/ha Preemergence) of 70%.
